Several values for one entry are separate records, joined by “and”; a condition that tells them apart may be missing. Equal values may be shown once. Toxic doses and inconclusive results are not listed. The calls were made as follows: active = survival T/C of 150% or more; inactive = T/C below 125% in these data.
Test system: P388 leukemia ip, CD2F1 mice, survival T/C
Experiment: NCI In Vivo Anticancer Drug Screen. Data for tumor model P388 Leukemia (intraperitoneal) in CD2F1 (CDF1) mice
Details: endpoint: median survival time, higher = longer survival
In short: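 Mice carrying the transplanted tumor received test compound or vehicle. Survival was recorded in each group, and the value is the treated-group measurement divided by that of the vehicle-treated control group.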

[1] = dose: 50.0 mg/kg/injection, schedule: Q01DX009 (ip), vehicle: Klucel (hydroxypropylcellulose) (HPC)
[2] = dose: 50.0 mg/kg/injection, schedule: Q01DX005 (ip), vehicle: saline with Tween-80
[3] = dose: 100.0 mg/kg/injection, schedule: Q01DX005 (ip), vehicle: saline with Tween-80
[4] = dose: 50.0 mg/kg/injection, schedule: Q01DX009 (ip), vehicle: saline with Tween-80
[5] = dose: 50.0 mg/kg/injection, schedule: Q01DX009 (ip), vehicle: saline
[6] = dose: 200.0 mg/kg/injection, schedule: Q01DX009 (ip), vehicle: saline
[7] = dose: 100.0 mg/kg/injection, schedule: Q01DX009 (ip), vehicle: saline
[8] = dose: 50.0 mg/kg/injection, schedule: Q01DX005 (ip), vehicle: Klucel (hydroxypropylcellulose) (HPC)
[9] = dose: 100.0 mg/kg/injection, schedule: Q01DX005 (ip), vehicle: Klucel (hydroxypropylcellulose) (HPC)
[10] = dose: 200.0 mg/kg/injection, schedule: Q01DX005 (ip), vehicle: Klucel (hydroxypropylcellulose) (HPC)
[11] = dose: 60.0 mg/kg/injection, schedule: Q01DX005 (ip), vehicle: saline with Tween-80
[12] = dose: 120.0 mg/kg/injection, schedule: Q01DX005 (ip), vehicle: saline with Tween-80
[13] = dose: 240.0 mg/kg/injection, schedule: Q01DX005 (ip), vehicle: saline with Tween-80
[14] = dose: 100.0 mg/kg/injection, schedule: Q01DX009 (ip), vehicle: saline with Tween-80
[15] = dose: 200.0 mg/kg/injection, schedule: Q01DX009 (ip), vehicle: saline with Tween-80
[16] = dose: 100.0 mg/kg/injection, schedule: Q01DX009 (ip), vehicle: Klucel (hydroxypropylcellulose) (HPC)
[17] = dose: 200.0 mg/kg/injection, schedule: Q01DX009 (ip), vehicle: Klucel (hydroxypropylcellulose) (HPC)
[18] = dose: 100.0 mg/kg/injection, schedule: Q04DX002 (ip), vehicle: saline with Tween-80
[19] = dose: 200.0 mg/kg/injection, schedule: Q04DX002 (ip), vehicle: saline with Tween-80

Measured: T/C

COc1cccc2ccc(-c3ccccc3)[s+]c12
inactive: dose: 60.0 mg/kg/injection, schedule: Q01DX005 (ip), vehicle: Klucel (hydroxypropylcellulose) (HPC) 97 % of control | dose: 120.0 mg/kg/injection, schedule: Q01DX005 (ip), vehicle: Klucel (hydroxypropylcellulose) (HPC) 98 % of control | dose: 240.0 mg/kg/injection, schedule: Q01DX005 (ip), vehicle: Klucel (hydroxypropylcellulose) (HPC) 104 % of control

CC1(CCc2ccc(N(CCCl)CCCl)cc2)NC(=O)NC1=O (configuration not stated)
inactive: dose: 3.13 mg/kg/injection, schedule: Q01DX009 (ip), vehicle: Klucel (hydroxypropylcellulose) (HPC) 105 % of control | dose: 6.25 mg/kg/injection, schedule: Q01DX009 (ip), vehicle: Klucel (hydroxypropylcellulose) (HPC) 103 % of control | dose: 12.5 mg/kg/injection, schedule: Q01DX009 (ip), vehicle: Klucel (hydroxypropylcellulose) (HPC) 103 % of control | [1] 103 % of control

CN1CC2OC2(c2ccccc2)C(c2ccccc2)C1 (configuration not stated)
inactive: [2] 102 % of control | [3] 102 % of control

CC(C)C1C(=O)NC(c2ccc(N)cc2)c2ccccc21 (configuration not stated)
inactive: dose: 12.5 mg/kg/injection, schedule: Q01DX009 (ip), vehicle: saline with Tween-80 104 % of control | dose: 25.0 mg/kg/injection, schedule: Q01DX009 (ip), vehicle: saline with Tween-80 94 % of control | [4] 93 % of control | [5] 105 % of control | [6] 90 % of control

Clc1cnc(/N=C/c2ccc(/C=N/c3ncc(Cl)cc3Cl)cc2)c(Cl)c1
inactive: [5] 100 % of control | [7] 101 % of control | [6] 102 % of control

COc1ccc(C(=O)SCCCN=C(N)N)cc1
inactive: [2] 103 % of control | [3] 97 % of control

O=[N+]([O-])c1ccc(Sc2nc3ccccc3[nH]2)c(Cl)c1
inactive: [8] 99 % of control | [9] 100 % of control | [10] 117 % of control

CC(C)(C)C(=O)NC(OC(NC(=O)C(C)(C)C)C(=O)C(C)(C)C)C(=O)C(C)(C)C (configuration not stated)
inactive: [11] 97 % of control | [12] 99 % of control | [13] 105 % of control

Cc1ccc(/C=C(\NC(=O)c2ccc(C)cc2)C(=O)O)cc1
inactive: [8] 114 % of control | [9] 114 % of control | [10] 107 % of control

COC(=O)C(C(=O)OC)C(CC(=O)c1ccccc1)c1ccccc1 (configuration not stated)
inactive: [4] 109 % of control | [14] 103 % of control | [15] 103 % of control

Cc1cc2[nH]c3c(C#N)c(O)c(Cc4ccccc4)c(=O)n3c2cc1C
inactive: [11] 91 % of control | [12] 89 % of control | [13] 90 % of control

CCSc1nc2ccc(NC(=O)/C=C/C(=O)O)cc2s1
inactive: [1] 103 % of control | [16] 90 % of control | [17] 95 % of control

CC1(C)CCCC(C)(C)N1CC#CCON1C(=O)c2ccccc2C1=O
inactive: dose: 100.0 mg/kg/injection, schedule: Q04DX002 (ip), vehicle: Klucel (hydroxypropylcellulose) (HPC) 102 % of control | dose: 200.0 mg/kg/injection, schedule: Q04DX002 (ip), vehicle: Klucel (hydroxypropylcellulose) (HPC) 96 % of control | dose: 400.0 mg/kg/injection, schedule: Q04DX002 (ip), vehicle: Klucel (hydroxypropylcellulose) (HPC) 105 % of control

CCOC(=O)c1cnc2cc3c(cc2c1N=[N+]=[N-])OCO3
inactive: [11] 95 % of control | [12] 90 % of control | [13] 87 % of control

CC(C)(C#N)OC(=O)c1cccc(C(=O)OC(C)(C)C#N)c1Sc1ccccc1
inactive: dose: 25.0 mg/kg/injection, schedule: Q01DX001 (ip), vehicle: other 99 % of control | dose: 50.0 mg/kg/injection, schedule: Q01DX001 (ip), vehicle: other 105 % of control | dose: 100.0 mg/kg/injection, schedule: Q01DX001 (ip), vehicle: other 98 % of control and 105 % of control

O=C1c2ccccc2-c2c1c1ccccc1c(=O)n2Cc1ccccc1
inactive: dose: 6.25 mg/kg/injection, schedule: Q01DX005 (ip), vehicle: saline with Tween-80 101 % of control | dose: 12.5 mg/kg/injection, schedule: Q01DX005 (ip), vehicle: saline with Tween-80 101 % of control | dose: 25.0 mg/kg/injection, schedule: Q01DX005 (ip), vehicle: saline with Tween-80 104 % of control

CNS(=O)(=O)c1cc([N+](=O)[O-])c(N2CCCCC2)c([N+](=O)[O-])c1
inactive: [1] 100 % of control | [16] 100 % of control | [17] 99 % of control

O=C(O)CCCNSc1ccccc1[N+](=O)[O-]
inactive: dose: 12.5 mg/kg/injection, schedule: Q01DX009 (ip), vehicle: saline 100 % of control and 117 % of control | dose: 25.0 mg/kg/injection, schedule: Q01DX009 (ip), vehicle: saline 108 % of control and 94 % of control | [5] 99 % of control and 110 % of control | [7] 100 % of control and 108 % of control

CC(=O)OC1=C(Br)CCc2ccccc21
inactive: dose: 3.12 mg/kg/injection, schedule: Q01DX009 (ip), vehicle: DMSO 103 % of control | dose: 6.25 mg/kg/injection, schedule: Q01DX009 (ip), vehicle: DMSO 108 % of control | dose: 12.5 mg/kg/injection, schedule: Q01DX009 (ip), vehicle: DMSO 90 % of control and 96 % of control | dose: 25.0 mg/kg/injection, schedule: Q01DX009 (ip), vehicle: DMSO 93 % of control

Cc1cccc(C)c1NC(=O)/C(Cl)=C1/Sc2ccccc2NC1=O
inactive: [2] 105 % of control | [3] 97 % of control | dose: 200.0 mg/kg/injection, schedule: Q01DX005 (ip), vehicle: saline with Tween-80 88 % of control

C/C(=N\NC(=S)NC12CC3CC(CC(C3)C1)C2)c1ccccn1
inactive: dose: 100.0 mg/kg/injection, schedule: Q04DX003 (ip), vehicle: saline with Tween-80 113 % of control | dose: 200.0 mg/kg/injection, schedule: Q04DX003 (ip), vehicle: saline with Tween-80 104 % of control

O=C1CSC(c2cc(Cl)ccc2[N+](=O)[O-])N1c1nncs1 (configuration not stated)
inactive: [18] 87 % of control | [19] 87 % of control | dose: 400.0 mg/kg/injection, schedule: Q04DX002 (ip), vehicle: saline with Tween-80 88 % of control

Oc1ccccc1C=Nc1ccccc1C(F)(F)F
inactive: [4] 101 % of control | [14] 103 % of control | [15] 95 % of control | dose: 400.0 mg/kg/injection, schedule: Q01DX009 (ip), vehicle: saline with Tween-80 97 % of control

N#CCCNc1ccc(NCCC#N)c2c1C(=O)c1c(O)ccc(O)c1C2=O
inactive: dose: 25.0 mg/kg/injection, schedule: Q04DX002 (ip), vehicle: saline with Tween-80 103 % of control | dose: 50.0 mg/kg/injection, schedule: Q04DX002 (ip), vehicle: saline with Tween-80 94 % of control | [18] 101 % of control | [19] 104 % of control

N#C/C(=C\c1cccs1)C(=O)c1ccco1
inactive: [4] 101 % of control | [14] 100 % of control | [15] 95 % of control

Cc1ccc2c(c1)nc(N)n2N
inactive: dose: 100.0 mg/kg/injection, schedule: Q01DX001 (ip), vehicle: Klucel (hydroxypropylcellulose) (HPC) 100 % of control | dose: 200.0 mg/kg/injection, schedule: Q01DX001 (ip), vehicle: Klucel (hydroxypropylcellulose) (HPC) 98 % of control | dose: 400.0 mg/kg/injection, schedule: Q01DX001 (ip), vehicle: Klucel (hydroxypropylcellulose) (HPC) 89 % of control
